Measured values reported in patent US5369016A, “Peptide amidase and the use thereof” (Forschungszentrum Juelich GmbH, priority 1990, dated 1994).
Square brackets hold non-standard residues; d marks the D form. Peptide text beside a SMILES is read from it.

Experiments:
[1] = tested on: peptide amidase; experiment: Deamidation of tripeptides containing D-amino acids (stereospecificity); type: biochemical, orange; conditions: 12 h
Protocol: Column: RP 18, 0.1 ml/min
Eluent: Solution of TBA (tetrabutylammonium hydrogen sulfate) and […]

[2] = tested on: peptide amidase purified from orange flavedo; experiment: Cleavage of peptide amides with free N termini and of side chain amides; type: biochemical; conditions: amides of amino acid side chains (Asn; Gln); amino acid analyzer; 10000 µM
Protocol: Enzyme activity measured for the deamidation of dipeptide amides with free N termini (e.g. H-Tyr-Arg-NH2) was considerably higher than for peptide amides with an aromatic protective group, such as Z- or Bz-. Activity levels were up to 100 times higher than those measured with protected peptide amides.
Amides of amino acid side chains (Asn; Gln) Analysis
Eluent (HPLC): TBA/acetonitrile 95/5 or 96/4(*)
Reaction conditions: 10 mM substrate; 50 μg/ml peptide amidase; 50 mM
tris/HCl; pH 7.0; temperature 30° C.

[3] = tested on: peptide amidase; experiment: Effect of organic solvents on enzyme stability; type: biochemical, orange; conditions: 27.8% solvent, 30° C.; acetone, acetonitrile, DMF, ethanol compared
Protocol: Ten identical mixtures of the following composition:
50 μl of enzyme solution (40 μg of protein/mixture)
were incubated at 30° C. At various times, the reaction was initiated by the addition of substrate (Z-Gly-Tyr-NH2 in 100 μl of buffer/solvent 1:1, corresponding to 10 mM/mixture) and the activity was measured.

[4] = tested on: peptide amidase; experiment: Continuous deamidation of H-Tyr-Arg-NH2 in an enzyme membrane reactor (EMR); type: biochemical, orange; conditions: 20 mM substrate, residence time 30 minute, enzyme 0.15 mg/ml
Protocol: A continuous process for deamidation of H-Tyr-Arg-NH2 was carried out in an EMR. The conditions for operating the EMR (corresponding to a continuously operated stirred vessel reactor) permitted a more economic utilization of the enzyme because the enzyme was removed by ultrafiltration before the product was purified. The process was carried out under the following conditions: […]

[5] = Comparison of the activity of peptide amidase and CPD-Y (pH-stat); type: biochemical; conditions: for Amino-acid amidase activity (percent) / Amino-acid amidase activity (yes/no): strength varies depending on the amide of the amino acid
Protocol: The enzyme has neither peptidase activity nor amino acid amidase activity, as is evident from the results presented in Table 1 comparing the activities of a purified peptide amidase to carboxypeptidase Y in both its native and modified form.
Comparison of the activity of peptide amidase and CPD-Y;
Conditions for the determination of peptide amidase activity:
30 mM of different substrates, pH 9, 22° C., pH-stat
For the purposes of this disclosure, specific activity is defined as follows: 1 U/mg of enzyme can convert 1 μmol of substrate per minute.

In the case of `C[C@@H](NC(=O)[C@@H]1CCCN1C(=O)[C@@H](N)CCCNC(=N)N)C(N)=O` [H--Arg--Pro--D-Ala--NH2] (H-Arg-Pro-[dA]-NH2), the Conversion [1] is reported as 0 %/12 hours.

In the case of H--Ala--Asn, the Conversion [2] is reported as 0%.

H--Ala--Gln showed a Conversion [2] of 0%.

In the case of H--Leu--Arg--Asn, the Conversion [2] is reported as 0%.

In the case of `CN(C)C=O` [DMF, dimethylformamide], the “decrease in enzyme activity on incubation with solvent (in words)” value [3] is reported as “smallest decrease in enzyme activity”.

For `N=C(N)NCCC[C@H](NC(=O)[C@@H](N)Cc1ccc(O)cc1)C(N)=O` [Tyr--Arg--NH2, H-Tyr-Arg-NH2], the Mean conversion [4] was 92%.

`NCC(=O)N[C@@H](Cc1ccccc1)C(=O)N[C@H](Cc1ccccc1)C(N)=O` [H--Gly--Phe--D-Phe--NH2] (H-Gly-Phe-[dF]-NH2) gave a Conversion [1] of 0 %/12 hours.

For `NCC(=O)N[C@H](Cc1ccccc1)C(=O)N[C@@H](Cc1ccc(O)cc1)C(N)=O` [H--Gly--D-Phe--Tyr--NH2] (H-Gly-[dF]-Tyr-NH2), the Conversion [1] was 100 %/12 hours.

B1: Carboxypeptidase Y [CPD-Y (native)] (protein, UniProt P00729 112-532, looked up)
Carboxypeptidase Y: KIKDPKILGIDPNVTQYTGYLDVEDEDKHFFFWTFESRNDPAKDPVILWLNGGPGCSSLTGLFFELGPSSIGPDLKPIGNPYSWNSNATVIFLDQPVNVGFSYSGSSGVSNTVAAGKDVYNFLELFFDQFPEYVNKGQDFHIAGESYAGHYIPVFASEILSHKDRNFNLTSVLIGNGLTDPLTQYNYYEPMACGEGGEPSVLPSEECSAMEDSLERCLGLIESCYDSQSVWSCVPATIYCNNAQLAPYQRTGRNVYDIRKDCEGGNLCYPTLQDIDDYLNQDYVKEAVGAEVDHYESCNFDINRNFLFAGDWMKPYHTAVTDLLNQDLPILVYAGDKDFICNWLGNKAWTDVLPWKYDEEFASQKVRNWTASITDEVAGEVKSYKHFTYLRVFNGGHMVPFDVPENALSMVNEWIHGGFSL
For B1, the Peptidase activity [5] was “yes”, the Specific activity ([5]; 30 mM of different substrates, pH 9, 22° C., pH-stat) was 0.0082 U/mg protein and the “Amino-acid amidase activity (percent)” value [5] was 0-92%. The “Amino-acid amidase activity (yes/no)” value [5] was “yes”.

B2: Carboxypeptidase Y [CPD-Y (modified)] (protein, UniProt P00729 112-532, looked up)
Carboxypeptidase Y: KIKDPKILGIDPNVTQYTGYLDVEDEDKHFFFWTFESRNDPAKDPVILWLNGGPGCSSLTGLFFELGPSSIGPDLKPIGNPYSWNSNATVIFLDQPVNVGFSYSGSSGVSNTVAAGKDVYNFLELFFDQFPEYVNKGQDFHIAGESYAGHYIPVFASEILSHKDRNFNLTSVLIGNGLTDPLTQYNYYEPMACGEGGEPSVLPSEECSAMEDSLERCLGLIESCYDSQSVWSCVPATIYCNNAQLAPYQRTGRNVYDIRKDCEGGNLCYPTLQDIDDYLNQDYVKEAVGAEVDHYESCNFDINRNFLFAGDWMKPYHTAVTDLLNQDLPILVYAGDKDFICNWLGNKAWTDVLPWKYDEEFASQKVRNWTASITDEVAGEVKSYKHFTYLRVFNGGHMVPFDVPENALSMVNEWIHGGFSL
modifications: chemically modified
notes: carboxypeptidase Y in a chemically modified form
For B2, the “Amino-acid amidase activity (percent)” value [5] was 0-77% and the “Amino-acid amidase activity (yes/no)” value [5] was “yes”.
